What was measured:
K-Ras G12D = molecular target: T1, K-Ras G12D (Homo sapiens, UniProt P01116, G12D); assay: PPI-HTRF assay, K-Ras G12D / SOS1 interaction; format: biochemical; settings: HTRF, K-Ras G12D; read-out: PPI-HTRF-5 nM (K-Ras G12D IC50)
T1 construct: made in house; host or cells: E. coli, e.g. BL21 (DE3)
Source text: (§1) This assay can be also used to assess a selective inhibition or reduction of signaling output of a mutant Ras protein relative to a wildtype, or relative to a different mutant Ras protein. For example, the equilibrium interaction of wildtype Kras or K-Ras mutant (e.g., wildtype or a mutant thereof) with SOS1 (e.g., hSOS1) can be assessed as a proxy or an indication for a subject compound's ability to bind and inhibit Ras protein. HTRF assay detects from (i) a fluorescence resonance energy transfer (FRET) donor (e.g., antiGST-Europium) that is bound to GST-tagged K-Ras mutant to (ii) a FRET acceptor (e.g., anti-6His-XL665) bound to a His-tagged hSOS1.
(§2) The assay buffer can contain ˜5 mM HEPES pH 7.4, ˜150 mM NaCl, ˜1 mM DTT, 0.05% BSA and 0.0025% (v/v) Igepal. A Ras working solution is prepared in an assay buffer containing typically a suitable amount of the protein construct (e.g., GST-tagged K-Ras mutant) and the FRET donor (e.g., antiGST-Eu(K) from Cisbio, France). A SOS1 working solution is prepared in an assay buffer containing suitable amount of the protein construct (e.g., His-hSOS1) and the FRET acceptor (e.g., anti-6His-XL665 from Cisbio, France). A suitable amount of the protein construct will depend on the range of activity or range of IC50 values being detected or under investigation. For detecting IC50 within a range of 500 nM, the protein constructs of the same range of molarity can be utilized.
(§3) A fixed volume of DMSO with or without test compound is transferred into a 384-well plate. Ras working solution is added to all wells of the test plate. SOS1 working solution is added to all wells except for those that are subsequently filled the inhibitor control solution. Upon incubation for about 10 minutes or longer, the fluorescence is measured with a M1000Pro plate reader (Tecan) using HTRF detection (excitation 337 nm, emission 1: 620 nm, emission 2: 665 nm). Compounds are tested in duplicate at different concentrations (for example, 10 μM, 2.5 μM, 0.63 μM, 0.16 μM, 0.04 μM, 0.01 μM test compound). The ratiometric data (i.e., emission 2 divided by emission 1) is used to calculate IC50 values against Ras using GraphPad Prism (GraphPad software). Following this general procedure, samples are tested with or without a subject compound disclosed herein including compounds exemplified in Table 1 to assess their abilities to inhibit a mutant K-Ras relative to another K-Ras (e.g., different mutant or wildtype). Signaling output measured in terms of IC50 values can be obtained, a ratio of IC50 against one mutant relative to another mutant can be calculated. For instance, a selective reduction of K-Ras G12D signaling output can be evidenced by a ratio greater than one. In particular, a selective reduction of K-Ras G12D signaling relative to K-Ras WT signaling is evidenced if the ratio of IC50 (against K-Ras WT) to IC50 (against K-Ras G12D) is greater than 1.

K-Ras G12S = molecular target: T2, K-Ras G12S (Homo sapiens, UniProt P01116, G12S); assay: PPI-HTRF assay, K-Ras G12S / SOS1 interaction; format: biochemical; settings: read-out: PPI-HTRF-5 nM (K-Ras G12S IC50)
T2 construct: made in house; host or cells: E. coli, e.g. BL21 (DE3)
T2 sequence (P01116 1-188 isoform P01116-2 G12S): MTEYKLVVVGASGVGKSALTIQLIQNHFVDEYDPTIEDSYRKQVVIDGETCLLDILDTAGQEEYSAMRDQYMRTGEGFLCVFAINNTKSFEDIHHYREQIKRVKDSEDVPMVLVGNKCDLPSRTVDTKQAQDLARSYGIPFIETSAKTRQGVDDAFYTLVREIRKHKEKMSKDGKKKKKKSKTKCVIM
Source text: as §1, §2, §3

K-Ras G12V = molecular target: T3, K-Ras G12V (Homo sapiens, UniProt P01116, G12V); assay: PPI-HTRF assay, K-Ras G12V / SOS1 interaction; format: biochemical; settings: HTRF, K-Ras G12V; read-out: PPI-HTRF-5 nM (K-Ras G12V IC50)
T3 construct: made in house; host or cells: E. coli, e.g. BL21 (DE3)
T3 sequence (P01116 1-188 isoform P01116-2 G12V): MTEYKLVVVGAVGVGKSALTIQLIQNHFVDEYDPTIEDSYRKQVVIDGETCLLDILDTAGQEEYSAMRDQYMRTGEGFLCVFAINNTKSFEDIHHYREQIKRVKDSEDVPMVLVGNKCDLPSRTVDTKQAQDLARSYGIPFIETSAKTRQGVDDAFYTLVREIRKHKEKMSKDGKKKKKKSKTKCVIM
Source text: as §1, §2, §3

wildtype K-Ras = molecular target: T4, wildtype K-Ras (Homo sapiens, UniProt P01116); assay: PPI-HTRF assay, wildtype K-Ras / SOS1 interaction; format: biochemical; settings: HTRF, K-Ras wt; read-out: PPI-HTRF-5 nM (K-Ras wt IC50)
T4 construct: made in house; host or cells: E. coli, e.g. BL21 (DE3)
T4 sequence (P01116 1-188 isoform P01116-2): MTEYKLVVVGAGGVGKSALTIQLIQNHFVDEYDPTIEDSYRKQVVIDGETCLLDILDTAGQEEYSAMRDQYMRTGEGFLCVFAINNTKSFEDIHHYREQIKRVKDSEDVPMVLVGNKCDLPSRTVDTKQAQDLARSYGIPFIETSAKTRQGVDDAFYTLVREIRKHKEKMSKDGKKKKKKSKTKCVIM
Source text: as §1, §2, §3

GP2D cells = assay: Ras cellular assay, cell proliferation GP2D; format: cell-based
Experimental: (§4) For example, this assay can be also used to assess selective growth inhibition of a mutant Ras protein relative to a wildtype, or relative to a different mutant Ras protein.
ASPC-1 (ATCC CRL-1682), Panc-10.05 (ATCC CRL-2547), A427, GP2d cell lines or any other cell lines comprising a G12D mutation can be used to assess Ras cellular signaling in vitro, e.g., in response to a compound described herein. For example, ASPC-1 culture medium is prepared with RPMI-1640 and 10% heat-inactivated FBS. Panc-10.05 culture medium is prepared with RPMI-1640, 10 Units/mL human recombinant insulin, and 10% FBS. A427 cell culture is prepared with RPMI-1640 and 10% heat-inactivated FBS. A CellTiter-Glo (CTG) luminescent based assay (Promega) is used to assess growth of the cells, as a measurement of the ability of the compounds herein to inhibit Ras signaling in the cells. The cells (e.g., 800 per well) are seeded in their respective culture medium in standard tissue culture-treated 384-well format plates (Falcon #08-772-116) or ultra-low attachment surface 384-well format plates (S-Bio #MS-9384UZ). The day after plating, cells are treated with a dilution series (e.g., a 9 point 3-fold dilution series) of the compounds herein (e.g., approximately 40 μL final volume per well). Cell viability can be monitored (e.g., approximately 5 days later) according to the manufacturer's recommended instructions, where the CellTiter-Glo reagent is added (e.g., approximately 10 μL), vigorously mixed, covered, and placed on a plate shaker (e.g., approximately for 20 min) to ensure sufficient cell lysis prior to assessment of luminescent signal. The IC50 values are determined using the four parameter fit. The resulting IC50 value is a measurement of the ability of the test compound to reduce cell growth of Ras-driven cells (e.g., tumor cell lines) in vitro and/or in vivo.

SW620 cells = assay: Ras cellular assay, cell proliferation SW620; format: cell-based; settings: Homo sapiens, SW-620
Source text: as §4

T1 sequence (P01116 1-188 isoform P01116-2 G12D): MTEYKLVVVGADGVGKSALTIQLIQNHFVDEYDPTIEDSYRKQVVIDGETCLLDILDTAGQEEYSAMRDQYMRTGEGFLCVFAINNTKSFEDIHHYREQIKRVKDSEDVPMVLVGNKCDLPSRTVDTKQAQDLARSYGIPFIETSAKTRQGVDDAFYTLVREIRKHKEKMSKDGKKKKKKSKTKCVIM

Row | SMILES | IC50 (K-Ras G12D) [µM] | IC50 (K-Ras G12S) [µM] | IC50 (K-Ras G12V) [µM] | IC50 (wildtype K-Ras) [µM] | IC50 (SW620 cells) [µM] | IC50 (GP2D cells) [µM]
1 | N#CCCN1c2nc(OC[C@@]34CCCN3C[C@H](F)C4)nc3c(F)c(-c4ccc(F)c5sc(N)c(C#N)c45)c(Cl)c(c23)OCC2COCC21 (stereo partly drawn) [compound 197, 2-amino-4-(6-chloro-12-(2-cyanoethyl)-4-fluoro-2-(((2R,7aS)-2-fluorotetrahydro-1H-pyrrolizin-7a(5H)-yl)methoxy)-8a,9,11a,12-tetrahydro-8H,11H-furo[3′,4′:6,7][1,5]oxazocino[4,3,2-de]quinazolin-5-yl)-7-fluorobenzo[b]thiophene-3-carbonitrile] | < 5 | < 5 | < 5 | < 5 | < 5 | < 5
2 | CN1CC2COCC2Oc2c(Cl)c(-c3ccc(F)c4sc(N)c(C#N)c34)c(F)c3nc(OC[C@@]45CCCN4C[C@H](F)C5)nc1c23 (stereo partly drawn) [compound 113, 2-amino-4-(1-chloro-3-fluoro-5-(((2R,7aS)-2-fluorotetrahydro-1H-pyrrolizin-7a(5H)-yl)methoxy)-7-methyl-7,8,8a,9,11,11a-hexahydrofuro[3′,4′:7,8][1,5]oxazocino[4,3,2-de]quinazolin-2-yl)-7-fluorobenzo[b]thiophene-3-carbonitrile] | < 5 | < 5 | < 5 | < 5 | < 5 | < 5
3 | CC(CN(C)C)N1c2nc(OC[C@@]34CCCN3C[C@H](F)C4)nc3c(F)c(-c4ccc(F)c5sc(N)c(C#N)c45)c(Cl)c(c23)OCC2COCC21 (stereo partly drawn) [compound 102, 2-amino-4-(6-chloro-12-(1-(dimethylamino)propan-2-yl)-4-fluoro-2-(((2R,7aS)-2-fluorotetrahydro-1H-pyrrolizin-7a(5H)-yl)methoxy)-8a,9,11a,12-tetrahydro-8H,11H-furo[3′,4′:6,7][1,5]oxazocino[4,3,2-de]quinazolin-5-yl)-7-fluorobenzo[b]thiophene-3-carbonitrile] | < 5 | < 5 | < 5 | < 5 | > 5 | < 5
4 | N#Cc1c(N)sc2c(F)ccc(-c3c(Cl)c4c5c(nc(OC[C@@]67CCCN6C[C@H](F)C7)nc5c3F)N3CCC[C@@H]3CC(CO)O4)c12 (single isomer, unassigned) [compound 177] | < 5 | < 5 | < 5 | < 5 | < 5 | < 5
5 | CN(C)CCCN1c2nc(OC[C@@]34CCCN3C[C@H](F)C4)nc3c(F)c(-c4ccc(F)c5sc(N)c(C#N)c45)c(Cl)c(c23)OCC2COCC21 (stereo partly drawn) [compound 209, 2-amino-4-(6-chloro-12-(3-(dimethylamino)propyl)-4-fluoro-2-(((2R,7aS)-2-fluorotetrahydro-1H-pyrrolizin-7a(5H)-yl)methoxy)-8a,9,11a,12-tetrahydro-8H,11H-furo[3′,4′:6,7][1,5]oxazocino[4,3,2-de]quinazolin-5-yl)-7-fluorobenzo[b]thiophene-3-carbonitrile] | < 5 | < 5 | < 5 | < 5 | < 5 | < 5
6 | N#Cc1c(N)sc2c(F)ccc(-c3c(Cl)c4c5c(nc(OC[C@@]67CCCN6C[C@H](F)C7)nc5c3F)N3C[C@H](O)C[C@@H]3CCO4)c12 [compound 164, 2-amino-4-((2R,13aS)-10-chloro-8-fluoro-6-(((2R,7aS)-2-fluorotetrahydro-1H-pyrrolizin-7a(5H)-yl)methoxy)-2-hydroxy-1,2,3,12,13,13a-hexahydropyrrolo[1′,2′:5,6][1,5]oxazocino [4,3,2-de]quinazolin-9-yl)-7-fluorobenzo[b]thiophene-3-carbonitrile] | < 5 | < 5 | < 5 | < 5 | < 5 | < 5

Now from value to compound, other results behind:

Row | IC50 (K-Ras G12D) [µM] | IC50 (K-Ras G12S) [µM] | IC50 (K-Ras G12V) [µM] | IC50 (wildtype K-Ras) [µM] | IC50 (SW620 cells) [µM] | SMILES | IC50 (GP2D cells) [µM]
7 | < 5 | < 5 | < 5 | < 5 | < 5 | CN(C)CCN1c2nc(OC[C@@]34CCCN3C[C@H](F)C4)nc3c(F)c(-c4ccc(F)c5sc(N)c(C#N)c45)c(Cl)c(c23)OCC2COCC21 (stereo partly drawn) [compound 106, 2-amino-4-(6-chloro-12-(2-(dimethylamino)ethyl)-4-fluoro-2-(((2R,7aS)-2-fluorotetrahydro-1H-pyrrolizin-7a(5H)-yl)methoxy)-8a,9,11a,12-tetrahydro-8H,11H-furo[3′,4′:6,7][1,5]oxazocino[4,3,2-de]quinazolin-5-yl)-7-fluorobenzo[b]thiophene-3-carbonitrile] | < 5
8 | < 5 | < 5 | < 5 | < 5 | < 5 | CN1c2nc(OC[C@@]34CCCN3C[C@H](F)C4)nc3c(F)c(-c4ccc(F)c5sc(N)c(C#N)c45)c(Cl)c(c23)OCC2CCC21 (stereo partly drawn) [compound 187, 2-amino-4-(6-chloro-4-fluoro-2-(((2R,7aS)-2-fluorotetrahydro-1H-pyrrolizin-7a(5H)-yl)methoxy)-11-methyl-8,8a,9,10,10a,11-hexahydrocyclobuta[6,7][1,5]oxazocino [4,3,2-de]quinazolin-5-yl)-7-fluorobenzo[b]thiophene-3-carbonitrile] | < 5
9 | < 5 | < 5 | < 5 | < 5 | > 5 | CNCC(C)N1c2nc(OC[C@@]34CCCN3C[C@H](F)C4)nc3c(F)c(-c4ccc(F)c5sc(N)c(C#N)c45)c(Cl)c(c23)OCC2COCC21 (stereo partly drawn) [compound 109, 2-amino-4-(6-chloro-4-fluoro-2-(((2R,7aS)-2-fluorotetrahydro-1H-pyrrolizin-7a(5H)-yl)methoxy)-12-(1-(methylamino)propan-2-yl)-8a,9,11a,12-tetrahydro-8H,11H-furo[3′,4′:6,7][1,5]oxazocino[4,3,2-de]quinazolin-5-yl)-7-fluorobenzo[b]thiophene-3-carbonitrile] | > 5

Reference: patent publication US12059425B2, “Heterocyclic compounds and uses thereof” (Kumquat Biosciences Inc., priority 2022, dated 2024)
